Where two headings read alike, the source gives them in different places. Peptide text beside a SMILES is read from it.
Assays:
Vero cells = conditions: African green monkey
Influenza A Virus (H1N1) [1] = system: Influenza A Virus (H1N1)
Influenza A Virus (H3N2) [2] = system: Influenza A Virus (H3N2)
Murine Norovirus-1 [3] = system: Murine Norovirus-1
MDCK cells = conditions: dog
Human Adenovirus-5 [4] = system: Human Adenovirus-5
adenovirus = conditions: 111 µM LL-37 ref 60; cited from earlier work
in vitro [5] = conditions: dog
in vitro [6] = conditions: African green monkey
Influenza A Virus (H3N2) [7] = test: microbe, parasite or virus in culture; conditions: H3N2, MDCK, 3 h, read-out: IC50 Influenza A Virus (H3N2)/MDCK
Influenza A Virus (H1N1) [8] = test: microbe, parasite or virus in culture; conditions: H1N1, MDCK, 3 h, read-out: IC50 Influenza A Virus (H1N1)/MDCK
Human Adenovirus-5 [9] = test: microbe, parasite or virus in culture; conditions: Human mastadenovirus C, Vero, 3 h, read-out: IC50 Human Adenovirus-5/Vero
Murine Norovirus-1 [10] = test: microbe, parasite or virus in culture; conditions: Norwalk virus, in Mus musculus, 3 h, read-out: IC50 Murine Norovirus-1/Raw 246.7
H3N2 virus = test: Transmission electron microscopy of treated virus; parameters: species or system influenza virus H3N2 A/Hong Kong/8/68; conditions: 2 h exposure
Experimental: (§1) The viruses were exposed to the peptide/mimics for 2 h at 37 °C. Following this, 10 µL of the treated mixture was applied onto a glow-discharged carbon-coated 200 mesh copper grid and left to evaporate for 5 min. Subsequently, the sample was stained with 2% phosphotungstic acid (pH 4.5) for 1 min to enhance contrast. After air-drying, the grids were examined using an FEI Tecnai G2 20 transmission electron microscope (TEM).

H1N1 = test: Transmission electron microscopy of treated virus; parameters: species or system influenza virus H1N1 A/PR/8/34; conditions: TEM, 2 h exposure; untreated 120 nm
Experimental: as §1

[11] = Circular dichroism conformational analysis; format: physicochemical; conditions: 125, 250, 500 µM
Experimental: Circular dichroism (CD) analysis was conducted using the Jasco J-1500 spectropolarimeter to assess the secondary structure of peptides and mimics. The samples were placed in a quartz cuvette with a path length of 0.1 cm (Fisher brand, Thermo Fisher Scientific Aust Pty Ltd.). Spectra were recorded in the range of 185–260 nm at a scan speed of 200 nm/min, averaging 4 scans. The impact of the solvents milliQ water or 30 mM SDS on Mel4 and mimic 758 was evaluated at three concentrations: 500 µM, 250 µM, and 125 µM. Data were averaged, and the spectrum of a sample-free control was subtracted.

[12] = read-out: IC50 Human Adenovirus-5/Vero

| Structure (SMILES) | SI Influenza A Virus (H1N1)/MDCK (Influenza A Virus (H1N1) [1]) | SI Influenza A Virus (H3N2)/MDCK (Influenza A Virus (H3N2) [2]) | CC50 (in vitro [5]; CC50 (H1N1/MDCK)) [µM] | CC50 (in vitro [5]; CC50 (H3N2/MDCK)) [µM] | IC50 (Influenza A Virus (H3N2) [7]) [µM] | IC50 (Influenza A Virus (H1N1) [8]) [µM] | IC50 (Human Adenovirus-5 [9]) [µM] | IC50 (Murine Norovirus-1 [10]) [µM] | other results |
| --- | --- | --- | --- | --- | --- | --- | --- | --- | --- |
| NCCCCC(N)C(=O)NCCNC(=O)C(Cc1c[nH]c2ccccc12)NC(=O)c1cc(Br)ccc1NC(=O)c1ccc(-c2ccccc2)cc1 (stereo not drawn) [4-BIPL] | 1.2 | 1.2 | – | – | – | – | – | – | CC50 (Vero cells): 38.8 µM; IC50 (Influenza A Virus (H1N1) [1]; read-out: IC50 Influenza A Virus (H1N1)/MDCK): 10.3 µM; IC50 (Influenza A Virus (H3N2) [2]; read-out: IC50 Influenza A Virus (H3N2)/MDCK): 10.4 µM; IC50 (Murine Norovirus-1 [3]; read-out: IC50 Murine Norovirus-1/Raw 246.7): > 62.5 µM; CC50 (MDCK cells): 12.8 µM; IC50 (Human Adenovirus-5 [4]; [12]): > 62.5 µM |
| CC[C@H](C)[C@H](NC(=O)[C@H](CCCCN)NC(=O)[C@H](CCC(=O)O)NC(=O)[C@H](CCCCN)NC(=O)[C@H](CO)NC(=O)[C@H](CCCCN)NC(=O)[C@H](CCCNC(=N)N)NC(=O)[C@H](Cc1ccccc1)NC(=O)[C@H](Cc1ccccc1)NC(=O)[C@H](CC(=O)O)NC(=O)CNC(=O)[C@H](CC(C)C)NC(=O)[C@@H](N)CC(C)C)C(=O)NCC(=O)N[C@@H](CCCCN)C(=O)N[C@@H](CCC(=O)O)C(=O)N[C@@H](Cc1ccccc1)C(=O)N[C@@H](CCCCN)C(=O)N[C@@H](CCCNC(=N)N)C(=O)N[C@H](C(=O)N[C@H](C(=O)N[C@@H](CCC(N)=O)C(=O)N[C@@H](CCCNC(=N)N)C(=O)N[C@H](C(=O)N[C@@H](CCCCN)C(=O)N[C@@H](CC(=O)O)C(=O)N[C@@H](Cc1ccccc1)C(=O)N[C@@H](CC(C)C)C(=O)N[C@@H](CCCNC(=N)N)C(=O)N[C@@H](CC(N)=O)C(=O)N[C@@H](CC(C)C)C(=O)N[C@H](C(=O)N1CCC[C@H]1C(=O)N[C@@H](CCCNC(=N)N)C(=O)N[C@H](C(=O)N[C@@H](CCC(=O)O)C(=O)N[C@@H](CO)C(=O)O)[C@@H](C)O)C(C)C)[C@@H](C)CC)C(C)C)[C@@H](C)CC [LL-37, reference compound] | – | – | – | – | – | – | – | – | IC50 (Influenza A Virus (H1N1) [1]; Virus, 3 h): > 500 µM; effect on adenovirus (adenovirus): no effect; IC50 (Influenza A Virus (H3N2) [2]; Virus, 3 h): > 500 µM; IC50 (Murine Norovirus-1 [3]; 3 h): 4.2 µM; IC50 Human Adenovirus-5/Vero (Human Adenovirus-5 [4]): no activity; IC50 (Human Adenovirus-5 [4]; 3 h): > 125 µM |
| N=C(N)NCCC[C@H](NC(=O)[C@H](CCCNC(=N)N)NC(=O)[C@H](CCCNC(=N)N)NC(=O)[C@H](CCCNC(=N)N)NC(=O)CNC(=O)CNC(=O)[C@H](CCCNC(=N)N)NC(=O)[C@H](CCCNC(=N)N)NC(=O)[C@H](CCCNC(=N)N)NC(=O)[C@H](CCCNC(=N)N)NC(=O)[C@H](CCCNC(=N)N)NC(=O)[C@H](CCCNC(=N)N)NC(=O)[C@H](CCCCN)NC(=O)[C@H](CCCNC(=N)N)NC(=O)[C@H](CCCCN)NC(=O)[C@H](CC(N)=O)NC(=O)[C@@H](N)CCCCN)C(=O)O [Mel4] (H-KNKRKRRRRRRGGRRRR-OH) | – | – | – | – | – | – | – | – | CC50 (in vitro [5]): 12.7 µM; CC50 at 24 h (in vitro [6]): 47.6 µM; IC50 (Influenza A Virus (H1N1) [1]; Virus, 3 h): > 500 µM; IC50 (Influenza A Virus (H3N2) [2]; Virus, 3 h): > 500 µM; IC50 (Murine Norovirus-1 [3]; 3 h): 8.6 µM; IC50 (Human Adenovirus-5 [4]; 3 h): 47.4 µM |
| CC[C@H](C)[C@H](NC(=O)[C@H](Cc1c[nH]c2ccccc12)NC(=O)[C@H](CO)NC(=O)[C@@H](NC(=O)[C@H](CC(C)C)NC(=O)[C@@H](N)[C@@H](C)O)[C@@H](C)CC)C(=O)N[C@@H](CCCCN)C(=O)N[C@@H](CC(N)=O)C(=O)N[C@@H](CCCCN)C(=O)N[C@@H](CCCNC(=N)N)C(=O)N[C@@H](CCCCN)C(=O)N[C@@H](CCC(N)=O)C(=O)N[C@@H](CCCNC(=N)N)C(=O)N1CCC[C@H]1C(=O)N[C@@H](CCCNC(=N)N)C(=O)N[C@H](C(=O)N[C@@H](CO)C(=O)N[C@@H](CCCNC(=N)N)C(=O)N[C@@H](CCCNC(=N)N)C(=O)N[C@@H](CCCNC(=N)N)C(=O)N[C@@H](CCCNC(=N)N)C(=O)N[C@@H](CCCNC(=N)N)C(=O)N[C@@H](CCCNC(=N)N)C(=O)NCC(=O)NCC(=O)N[C@@H](CCCNC(=N)N)C(=O)N[C@@H](CCCNC(=N)N)C(=O)N[C@@H](CCCNC(=N)N)C(=O)N[C@@H](CCCNC(=N)N)C(=O)O)C(C)C [Melimine] (H-TLISWIKNKRKQRPRVSRRRRRRGGRRRR-OH) | – | – | – | – | – | – | – | – | CC50 (in vitro [5]): 28.1 µM; CC50 at 24 h (in vitro [6]): 14.5 µM; IC50 (Influenza A Virus (H1N1) [1]; Virus, 3 h): > 500 µM; IC50 (Influenza A Virus (H3N2) [2]; Virus, 3 h): > 500 µM; IC50 (Murine Norovirus-1 [3]; 3 h): 4.8 µM; IC50 (Human Adenovirus-5 [4]; 3 h): > 125 µM |
| NCCCCC(N)C(=O)NCCNC(=O)C(Cc1c[nH]c2ccccc12)NC(=O)c1cc(Br)ccc1NC(=O)c1ccc2ccccc2c1 (stereo not drawn) [NAPL] | 10.6 | 10.6 | 112 | 112 | 10.5 | 10.5 | 59.3 | > 62.5 | – |
| NCCNC(=O)C(Cc1c[nH]c2ccccc12)NC(=O)c1cc(-c2ccccc2-c2ccccc2)ccc1N (stereo not drawn) [Sau-22] | 11.4 | 14.8 | 79.4 | 79.4 | 5.34 | 6.93 | > 62.5 | > 62.5 | – |
| NCCNC(=O)C(Cc1c[nH]c2ccccc12)NC(=O)c1cc(-c2ccc3ccccc3c2)ccc1N (stereo not drawn) [compound 610] | 14.1 | 9 | 33.3 | 33.3 | 3.7 | 2.35 | > 62.5 | > 62.5 | effect on virus particle (TEM) (H3N2 virus): reduction in size and disruption to the envelop and spike proteins; average particle size of the virus after treatment (H1N1): 48 nm |
| NCCNC(=Nc1ccccc1)NCCNC(=O)C(Cc1c[nH]c2ccccc12)NC(=O)c1cc(Br)ccc1NC(=O)c1ccc2ccccc2c1 (stereo not drawn) [compound 758] | 11.9 | 15.8 | 147 | 147 | 9.3 | 12.3 | > 62.5 | > 62.5 | secondary structure by CD in SDS ([11]; 30 mM SDS (membrane mimetic)): beta sheet-like structure; secondary structure by CD in water ([11]; milliQ water): beta sheet-like structure |
| NCCN=C(NCCN)NCCNC(=O)C(Cc1c[nH]c2ccccc12)NC(=O)c1cc(Br)ccc1NC(=O)c1ccc2ccccc2c1 (stereo not drawn) [compound 1083] | 8.7 | 9.05 | 250 | 250 | 27.7 | 28.5 | 47.2 | > 62.5 | IC50 (Human Adenovirus-5 [4]; [12]): 45.1 µM |
| N=C(N)NCCNC(=O)C(Cc1ccccc1)NC(=O)c1cc(Br)ccc1NC(=O)c1ccc2ccccc2c1 (stereo not drawn) [compound 1091] | 5.5 | 5.2 | 128 | 128 | 24.3 | 23.1 | > 62.5 | > 62.5 | – |
| NCCNC(=Nc1ccccc1)NCCNC(=O)C(Cc1ccccc1)NC(=O)c1cc(Br)ccc1NC(=O)c1ccc2ccccc2c1 (stereo not drawn) [compound 1096] | 2.1 | 1.9 | 47.2 | 47.2 | 24 | 22.2 | > 62.5 | > 62.5 | – |
